The record followed here is ChEMBL document CHEMBL1201862, “PubChem BioAssay data set” (2004).

The GI50 is the concentration at which growth is held to half of that of the control.

Each structure is given as a SMILES string.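 Interpolation was linear, between the two tested concentrations surrounding the appropriate level; five concentrations were tested over 48 hours in 96-well plates. GI50 is the concentration that inhibits growth by half.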 Active and inactive are the calls of the source. Rule as the data show it: active = GI50 up to about 1.1 µM and inactive = higher.

What all share (assay): DTP human tumour cell line panel, 48 h
Test [1] deals with OVCAR-5.
Test [2] has as its system MCF7.
The subject of test [3] is SF-268.
The test system of test [4] is HCT-116.
Test [5] relates to UO-31.
Test [6] has as its system Hs-578T.
In test [7] the test system is TK-10.
The test system of test [8] is DU-145.
Test [9] relates to 786-0.
The test system of test [10] is K562.
Test [11] relates to NCI-H460.
The subject of test [12] is A498.
In test [13] the test system is MDA-MB-231.
Test [14] deals with SF-539.
Test [15] has as its system IGROV-1.
The test system of test [16] is OVCAR-3.
Test [17] relates to HT-29.
Test [18] has as its system CCRF-CEM.
The test system of test [19] is SR.
Test [20] has as its system PC-3.

Regarding `C/C(=N\N=C(/[SeH])N1CC2CCC(CC2)C1)c1ccccn1`, the GI50 in test [1] is 0.179 µM (active); in test [2], < 0.01 µM (active); in [3], 0.161 µM (active); in test [4], < 0.01 µM (active); in [5], 0.217 µM (active); in test [6] it was 0.198 µM (active). The 50% growth inhibitory concentration (GI50) in test [7] is 0.762 µM (active); in test [8] it was 0.927 µM (active); in test [9] it was 0.211 µM (active); in test [10] it was < 0.01 µM (active); in test [11], 0.0568 µM (active); in test [12], 0.196 µM (active). Moreover, the concentration for 50% growth inhibition (GI50) in test [13] was 0.115 µM (active); in [14] it was 0.251 µM (active); in [15], 0.0169 µM (active); in [16] it was 0.0222 µM (active); in [17], < 0.01 µM (active); in test [18], 0.0111 µM (active). The values for the GI50 in test [19] and in [20] were 0.0223 µM (active) and 0.0647 µM (active), respectively.
Turning to `CC1Oc2cc3c(-c4c(O)cc(O)c5c(O)c6c(cc45)OC(C)C(C)C6=O)c(O)cc(O)c3c(O)c2C(=O)C1C` (stereo not given), the GI50 in test [1] is 0.55 µM (active); in test [2] it was 0.147 µM (active); in test [3], 0.254 µM (active); in [4] it was 0.0378 µM (active); in [5], 0.213 µM (active); in test [6], 0.0439 µM (active). Moreover, the GI50 in [7] is 0.27 µM (active); in test [8] it was 0.365 µM (active); in test [9] it was 0.102 µM (active); in test [10], 0.0526 µM (active); in [11] it was 0.0259 µM (active); in test [12] it was 0.155 µM (active). The GI50 in test [13] is 0.0925 µM (active); in test [14], 0.15 µM (active); in [15] it was 0.0574 µM (active); in [16], 0.255 µM (active); in test [17], 0.0289 µM (active); in test [18], 0.0279 µM (active). In addition, the GI50 in test [19] was 0.054 µM (active); in test [20], 0.0546 µM (active).
With `CN1CC[C@]2(c3cccc(O)c3)CC(=O)/C(=C/c3ccccc3)[C@@H]1C2.[O-][Cl+3]([O-])([O-])O`, the GI50 in [1] is 14.4 µM (inactive); in test [2] it was 2.19 µM (inactive); in test [3], 3.17 µM (inactive); in test [4], 2.31 µM (inactive); in [5], 2.51 µM (inactive); in test [6], 4.62 µM (inactive). Besides, the GI50 is 13.9 µM (inactive) in test [7]; 5.52 µM (inactive) in test [8]; 2.44 µM (inactive) in test [9]; 1.64 µM (inactive) in [10]; 2.17 µM (inactive) in test [11]; 6.98 µM (inactive) in test [12]. Besides, the GI50 in [13] is 2.34 µM (inactive); in test [14], 1.95 µM (inactive); in test [15], 4.39 µM (inactive); in test [16], 1.97 µM (inactive); in [17], 2.62 µM (inactive); in test [18], 2.13 µM (inactive). Besides, the GI50 is 2.41 µM (inactive) in [19] and 1.76 µM (inactive) in [20].
As to `O=S1(=O)c2ccccc2N2CCCc3cc(Cl)cc1c32`, the GI50 in test [1] is > 100 µM (inactive); in test [2], > 100 µM (inactive); in [3] it was 34.4 µM (inactive); in test [4], > 100 µM (inactive); in [5], > 100 µM (inactive); in test [6] it was 27.4 µM (inactive). In addition, the GI50 in [7] is > 10 µM (inactive); in test [8], > 100 µM (inactive); in test [9] it was 40.4 µM (inactive); in test [10] it was > 100 µM (inactive); in test [11] it was > 100 µM (inactive); in test [12], > 100 µM (inactive). In addition, the GI50 is 37 µM (inactive) in test [13]; 35 µM (inactive) in test [14]; > 100 µM (inactive) in [15]; 67.5 µM (inactive) in [16]; > 100 µM (inactive) in [17]; > 100 µM (inactive) in test [18]. In addition, the GI50 in [19] and in [20] was > 100 µM (inactive) in each case.
As to `Cc1cc(O)nc(NN2C(Cl)C(=O)C2c2ccccc2O)n1` (stereo not given), the GI50 in test [1] was 12.9 µM (inactive); in [2], 2.48 µM (inactive); in test [3], 1.53 µM (inactive); in test [4] it was 2.14 µM (inactive); in [5], 2.06 µM (inactive); in test [6] it was 26.8 µM (inactive). Besides, the GI50 in [7] was 19.4 µM (inactive); in test [8] it was 4.06 µM (inactive); in test [9], 2.53 µM (inactive); in test [10] it was 1.08 µM (active); in test [11], 0.726 µM (active); in test [12] it was 12.2 µM (inactive). In addition, the GI50 was 4.39 µM (inactive) in test [13]; 4.54 µM (inactive) in test [14]; 3.75 µM (inactive) in test [15]; 0.33 µM (active) in [16]; 8.39 µM (inactive) in test [17]; 0.547 µM (active) in [18]. The GI50 was 0.796 µM (active) in [19] and 1.32 µM (inactive) in [20].
Take `CN(C)CCCNC(=O)c1cc(NS(=O)(=O)c2ccc3c(c2)C(=O)c2ccccc2C3=O)cn1C`: the GI50 is 35.6 µM (inactive) in test [1]; 19.5 µM (inactive) in [2]; 29.5 µM (inactive) in test [3]; 51.3 µM (inactive) in test [4]; 56.4 µM (inactive) in [5]; 76.4 µM (inactive) in test [6]. Further, the GI50 is 25.2 µM (inactive) in test [7]; 40.3 µM (inactive) in [8]; 28.7 µM (inactive) in [9]; 30 µM (inactive) in test [10]; 18.8 µM (inactive) in [11]; 23.2 µM (inactive) in test [12]. Moreover, the GI50 is 24.8 µM (inactive) in test [13]; 42.8 µM (inactive) in [14]; 33 µM (inactive) in test [15]; 13.5 µM (inactive) in test [16]; 28.8 µM (inactive) in [17]; 21.5 µM (inactive) in test [18]. Further, the GI50 in [19] was 21.9 µM (inactive); in [20], 33.3 µM (inactive).
In the case of `C=C1C(=O)O[C@H]2[C@H]3O[C@@H](C[C@@H]12)[C@@]1(C)CC[C@H](O1)C(C)=CCC[C@H]3C`, the GI50 in test [1] was 3.09 µM (inactive); in [2], 1.43 µM (inactive); in test [3], 1.45 µM (inactive); in test [4] it was 1.45 µM (inactive); in test [5] it was 1.46 µM (inactive); in test [6], 2.65 µM (inactive). Moreover, the GI50 was 1.58 µM (inactive) in test [7]; 1.49 µM (inactive) in test [8]; 1.31 µM (inactive) in [9]; 1.08 µM (active) in test [10]; 2.07 µM (inactive) in test [11]; 1.63 µM (inactive) in test [12]. The GI50 in [13] was 1.62 µM (inactive); in [14], 1.55 µM (inactive); in test [15] it was 1.53 µM (inactive); in test [16], 1.37 µM (inactive); in [17] it was 1.34 µM (inactive); in test [18], 0.324 µM (active). Moreover, the GI50 in test [19] is 0.065 µM (active); in [20] it was 1.49 µM (inactive).
As for `COc1ccccc1C1ON=C(c2ccc([N+](=O)[O-])cc2)N1C12CC3CC(CC(C3)C1)C2` (stereo not given), the GI50 is 44.7 µM (inactive) in test [1]; 47.9 µM (inactive) in test [2]; > 100 µM (inactive) in [3]; 47.5 µM (inactive) in [4]; > 100 µM (inactive) in [5]; 37.9 µM (inactive) in test [6]. In addition, the GI50 in test [7] is > 100 µM (inactive); in [8], > 100 µM (inactive); in [9] it was > 100 µM (inactive); in [10], 36.7 µM (inactive); in [11], 47.9 µM (inactive); in [12], > 100 µM (inactive). For the same molecule, the GI50 in [13] is > 100 µM (inactive); in test [14], > 100 µM (inactive); in test [15], > 100 µM (inactive); in [16], > 100 µM (inactive); in test [17], 45.4 µM (inactive); in test [18] it was 28.7 µM (inactive). The GI50 in [19] is 29.9 µM (inactive); in [20], 33 µM (inactive).
Turning to `COC(=O)/C(C#N)=C/c1cc(C(C)(C)C)c(O)c(C(C)(C)C)c1`, the GI50 was 2.54 µM (inactive) in test [1]; 2.66 µM (inactive) in [2]; 3.27 µM (inactive) in test [3]; 2.66 µM (inactive) in [4]; 2.17 µM (inactive) in [5]; 3.55 µM (inactive) in [6]. Moreover, the GI50 in [7] was 3.24 µM (inactive); in [8] it was 4.58 µM (inactive); in test [9], 3.15 µM (inactive); in test [10], 2.59 µM (inactive); in [11], 1.95 µM (inactive); in test [12], 1.77 µM (inactive). The GI50 in [13] is 1.63 µM (inactive); in test [14] it was 3.27 µM (inactive); in test [15] it was 4.55 µM (inactive); in [16], 1.45 µM (inactive); in test [17], 2.82 µM (inactive); in [18], 1.9 µM (inactive). The GI50 in test [19] was 0.904 µM (active); in [20], 2.11 µM (inactive).
On to `Clc1ccc2c(NC3CCC(N4CCCCC4)CC3)ccnc2c1` (stereo not given), for which the GI50 in test [1] was 30.7 µM (inactive); in test [2] it was 28.8 µM (inactive); in [3], 35.8 µM (inactive); in [4], 13.4 µM (inactive); in test [5] it was 13.9 µM (inactive); in test [6] it was 27.2 µM (inactive). For the same molecule, the GI50 was 18.4 µM (inactive) in test [7]; 27.4 µM (inactive) in test [8]; 15.4 µM (inactive) in test [9]; 3.3 µM (inactive) in test [10]; 15 µM (inactive) in [11]; 18.3 µM (inactive) in [12]. In addition, the GI50 was 16.9 µM (inactive) in test [13]; 15.4 µM (inactive) in test [14]; 29.2 µM (inactive) in test [15]; 20.8 µM (inactive) in test [16]; 11.4 µM (inactive) in test [17]; 6.03 µM (inactive) in [18]. Besides, the results for the GI50 in test [19] and in test [20] were 13.2 µM (inactive) and 32.5 µM (inactive), respectively.
